The text below walks through data of ChEMBL document CHEMBL2363022, “Malaria Box Schistosomiasis Screening Data” (2013).

SMILES strings stand for the structures.

Type in all cases: functional
Common to all, as to design: scale not given here

In assay [1] the test system is Schistosoma mansoni.
The test system of assay [2] is Schistosoma mansoni. This is another data set of the same source.
The subject of assay [3] is Schistosoma mansoni. The source holds these as a separate data set.

On to `CCN(CC)CCNc1ncnc2c1[nH]c1ccc(Cl)cc12`, for which the Toxicity in assay [1], in assay [2] and in assay [3] was 0 each time.
With `CC(=O)NCCc1nc2ccccc2n1Cc1ccc(C(C)C)cc1`, the Toxicity in assay [1], in assay [2] and in assay [3] was 0 each time.
As for `COc1ccc(CCN2C(=O)c3[nH]nc(-c4cc(Cl)c(C)cc4O)c3C2c2ccccc2F)cc1` (centres undefined), the Toxicity in assay [1], in assay [2] and in assay [3] was 0 throughout.
Take `CCCn1c(=N)c(C(=O)NC2CCCCC2)cc2c(=O)n3cccc(C)c3nc21`: the Toxicity in assay [1], in assay [2] and in assay [3] was 0 each time.
Consider `CCCCNCC(O)(c1ccc(Cl)cc1)c1ccc(Cl)cc1`, for which the Toxicity in assay [1], in assay [2] and in assay [3] was 0 in each case.
Turning to `CCOC(=O)C1CCN(C(=O)CN2C(=O)c3ccccc3C2c2c[nH]c3ccccc23)CC1` (centres undefined), the Toxicity in assay [1], in assay [2] and in assay [3] was 0 in each case.
Consider `CCCCCCOC(=O)C1=C(C)NC(=O)NC1c1ccccc1F` (centres undefined), for which the Toxicity in assay [1], in assay [2] and in assay [3] was 0 in each case.
For `CCCCCn1c(=N)n(CC(O)COc2cccc(C)c2)c2ccccc21.Cl` (centres undefined), the Toxicity came out at 4 in assay [1], 4 in assay [2] and 2 in assay [3].
On to `CCCCCCc1cc2cc(-c3nc4ccccc4[nH]3)c(=Nc3ccccc3C)oc2cc1O`, for which the Toxicity in assay [1] worked out at 3; in assay [2], 3; in assay [3] it was 0.
For `CN(C)c1ccc(N2C(N)=NC(N)=NC2(C)C)cc1`, the Toxicity in assay [1], in assay [2] and in assay [3] was 0 in each case.
Turning to `CCN(Cc1ccccc1)C1CCN(Cc2cc(Br)ccc2O)CC1.O=C(O)C(=O)O`, the Toxicity in assay [1], in assay [2] and in assay [3] was 0 in each case.
Turning to `Cc1cccc(N2C(=O)C3C(C2=O)C2(c4ccccc4)C(=O)C3(c3ccccc3)C(c3ccc4c(c3)OCO4)=C2c2ccc3c(c2)OCO3)c1` (centres undefined), the Toxicity in assay [1], in assay [2] and in assay [3] was 0 in each case.
`O=C(NC1CCN(Cc2ccccc2)CC1)c1cc2nc(-c3ccc(Cl)s3)cc(C(F)(F)F)n2n1`: the Toxicity came to 4 in assay [1], 4 in assay [2] and 0 in assay [3].
For `Cl.c1ccc2c(NCCCCCCNc3c4c(nc5ccccc35)CCCC4)c3c(nc2c1)CCCC3`, the Toxicity in assay [1], in assay [2] and in assay [3] was 4 in each case.
As to `Cc1nc2ccccc2c(O)c1CC=C(Cl)Cl`, the Toxicity in assay [1], in assay [2] and in assay [3] was 0 each time.
`O=C(NC1CCN(Cc2ccccc2)CC1)c1cc(C(=O)NC2CCN(Cc3ccccc3)CC2)cc(C(=O)NC2CCN(Cc3ccccc3)CC2)c1`: the Toxicity in assay [1], in assay [2] and in assay [3] was 0 in each case.
In the case of `O=C(NCC1Cc2cccc(-c3ccncc3)c2O1)c1csc2c1CCCC2` (centres undefined), the Toxicity in assay [1], in assay [2] and in assay [3] was 0 in each case.
On to `O=C(CSc1ccc2nnc(-c3cccc(F)c3)n2n1)Nc1ccc2c(c1)OCO2`, for which the Toxicity in assay [1], in assay [2] and in assay [3] was 0 each time.
`O=C(O)C1Cc2c([nH]c3ccccc23)C(c2ccc(Cl)cc2Cl)N1` (centres undefined): the Toxicity in assay [1], in assay [2] and in assay [3] was 0 each time.
With `COc1ccc(-c2c(C)nn3c(N)c(C#N)cnc23)cc1OC`, the Toxicity in assay [1], in assay [2] and in assay [3] was 1 in each case.
`CN1C=C(c2ccc3ccccc3n2)C(c2c[nH]c3ccccc23)c2ccccc21` (centres undefined): the Toxicity in assay [1], in assay [2] and in assay [3] was 0 throughout.
Take `O=C(Cc1ccccc1)NC(c1ccc(Cl)cc1)c1c(O)ccc2ccccc12` (centres undefined): the results for the Toxicity in assay [1], in assay [2] and in assay [3] were 2, 1 and 2, respectively.
With `CCN1CCN(c2cc(C)c3cc(NC(=O)c4ccc(OC)c(OC)c4)ccc3n2)CC1`, the Toxicity in assay [1] worked out at 0; in assay [2], 0; in assay [3], 1.
For the molecule `CCC(=O)Nc1nnc(Cc2ccc(OC)c(OC)c2)s1`, the Toxicity in assay [1], in assay [2] and in assay [3] was 0 each time.
`COc1cc(OC)c(N(C)C(=O)c2cc3c(s2)-c2ccccc2S(=O)(=O)C3)cc1Cl`: the Toxicity in assay [1], in assay [2] and in assay [3] was 0 each time.
As to `CCCCc1c(CCC)c(=N)c2ccccc2n1C.I`, the Toxicity in assay [1], in assay [2] and in assay [3] was 0 throughout.
With `CCOC(=O)C1=C(C)N=c2sc(=Cc3cc(Cl)ccc3O)c(=O)n2C1c1ccc(OC)cc1` (centres undefined), the Toxicity in assay [1], in assay [2] and in assay [3] was 0 each time.
In the case of `Cn1c(C(=O)c2cccc3ccccc23)nc2ccccc21`, the Toxicity in assay [1], in assay [2] and in assay [3] was 0 in each case.
As to `COc1cc(SC)ccc1C(=O)N1CCCC(C)C1` (centres undefined), the Toxicity in assay [1], in assay [2] and in assay [3] was 0 in each case.
For `Nc1ccc(-c2nc3cc(Oc4ccc(Oc5ccc6[nH]c(-c7ccc(N)cc7)nc6c5)cc4)ccc3[nH]2)cc1`, the values for the Toxicity in assay [1], in assay [2] and in assay [3] were 2, 0 and 0, respectively.
`CCOC(=O)C1=C(c2ccccc2)N=c2sc(=Cc3cc(C)n(-c4ccc(F)cc4)c3C)c(=O)n2C1c1cccc(OC)c1OC` (centres undefined): the Toxicity in assay [1], in assay [2] and in assay [3] was 0 throughout.
With `CCOc1ccc2nc(C)cc(Nc3ccc(N(C)C)cc3)c2c1.Cl`, the values for the Toxicity in assay [1], in assay [2] and in assay [3] were 4, 4 and 2, respectively.
For `CCc1ccc(Nc2cc(C)c3ccc(O)cc3n2)cc1.Cl`, the Toxicity is on record as 3 in assay [1], 2 in assay [2] and 2 in assay [3].
Regarding `CCC(C)NCC(O)(c1ccc(Cl)cc1)c1ccc(Cl)cc1` (centres undefined), the Toxicity in assay [1] was 0; in assay [2], 0; in assay [3], 1.
For the molecule `COc1ccc(C2Sc3ccccc3N=C3C2=C(O)c2ccccc23)cc1` (centres undefined), the Toxicity in assay [1], in assay [2] and in assay [3] was 0 in each case.
With `COc1ccc(C(=O)Nc2nonc2-c2ccc(OC)c(OC)c2)cc1Cl`, the Toxicity in assay [1], in assay [2] and in assay [3] was 0 in each case.
Consider `CCOc1ccc2c(c1)CN(Cc1ccc(Cl)cc1)CO2`, for which the Toxicity in assay [1] came to 0; in assay [2] it was 0; in assay [3] it was 2.
As to `CCOC(=O)c1cn(CC)c2cc(N3CCCCC3)c(F)cc2c1=O`, the Toxicity in assay [1], in assay [2] and in assay [3] was 0 in each case.
Regarding `O=C(NNc1cc(N2CCCC2)nc(N2CCCC2)n1)c1ccccc1`, the Toxicity in assay [1] was found to be 4; in assay [2] it was 0; in assay [3], 1.
`COc1ccc(C(=O)NC(c2ccc(Cl)cc2Cl)c2cc(Cl)c3cccnc3c2O)cc1` (centres undefined): the Toxicity in assay [1], in assay [2] and in assay [3] was 0 each time.
For `O=C(c1ccccc1F)N(Cc1ccc(Cl)cc1)c1ccccn1`, the Toxicity in assay [1], in assay [2] and in assay [3] was 0 each time.
On to `OC1=C2C(=Nc3ccccc3SC2c2ccccc2)c2ccccc21` (centres undefined), for which the Toxicity in assay [1], in assay [2] and in assay [3] was 0 throughout.
Take `COc1ccc(Nc2cc(C)nc(NCc3ccccc3)n2)cc1`: the Toxicity in assay [1] is 3; in assay [2] it was 3; in assay [3], 2.
As for `O=C(Nc1ccc(Cl)cc1C(=O)Nc1ccncc1)c1ccc(Cl)cc1Cl`, the Toxicity in assay [1], in assay [2] and in assay [3] was 0 each time.
`COc1ccc(-c2nc(NC(=O)CS(=O)(=O)c3ccc(F)cc3)sc2C)cc1`: the Toxicity in assay [1], in assay [2] and in assay [3] was 0 in each case.
Turning to `COc1cccc(C=Cc2nc(=O)c3ccccc3o2)c1OC`, the Toxicity in assay [1], in assay [2] and in assay [3] was 0 in each case.
As for `CCN(CC)c1cc(C)c2cc(NC(=O)c3cccc(OC)c3)ccc2n1`, the Toxicity in assay [1] came out at 0; in assay [2], 0; in assay [3], 2.
Turning to `CCOc1cc2c(cc1OCC)C(c1cc(C)c(O)c(C)c1)NCC2.Cl` (centres undefined), the Toxicity in assay [1] turned out to be 0; in assay [2] it was 0; in assay [3] it was 2.
On to `O=C(Nc1ccc(-c2nc3ccccc3[nH]2)cc1)c1ccc(Cl)c(Cl)c1`, for which the Toxicity in assay [1], in assay [2] and in assay [3] was 0 throughout.
For `COc1ccc(/C=C2/SC(=Nc3ccccc3)NC2=O)cc1`, the Toxicity in assay [1], in assay [2] and in assay [3] was 0 in each case.
For `CCCCc1c(C)nc2c(OC)cccc2c1O`, the Toxicity in assay [1], in assay [2] and in assay [3] was 0 throughout.
With `CCOc1ccc(-c2nonc2NC(=O)c2cccc(C)c2)cc1OCC`, the Toxicity in assay [1], in assay [2] and in assay [3] was 0 throughout.
Regarding `CC(C)(C)C(=O)Nc1ccc(C(=O)Nc2cccc(-c3nc4ccccc4[nH]3)c2)cc1`, the Toxicity in assay [1] was found to be 2; in assay [2] it was 0; in assay [3], 0.
